In brackets after ≈: the same amount, converted by molar mass.
Key:
Format in all cases: functional
Acinetobacter = experiment: In vitro antibacterial activity against Acinetobacter CMX 669
Staphylococcus aureus [1] = experiment: In vitro antibacterial activity against Staphylococcus aureus CMX 686B
[2] = system: Staphylococcus epidermidis; experiment: In vitro antibacterial activity against Staphylococcus epidermis 3519
Klebsiella pneumoniae = experiment: In vitro antibacterial activity against Klebsiella pneumoniae 8045
Pseudomonas aeruginosa [3] = experiment: In vitro antibacterial activity against Pseudomonas aeruginosa 5007
Pseudomonas aeruginosa [4] = experiment: FIn vitro antibacterial activity against Pseudomonas aeruginosa K799/WT
Streptococcus pyogenes = experiment: In vitro antibacterial activity against Streptococcus pyogenes 930
Enterococcus faecium = experiment: In vitro antibacterial activity against Streptococcus faecium ATCC 8043
Escherichia coli [5] = experiment: In vitro antibacterial activity against Escherichia coli Juhl
Staphylococcus aureus [6] = experiment: In vitro antibacterial activity against Staphylococcus aureus ATCC 6538P
Klebsiella aerogenes = experiment: In vitro antibacterial activity against Enterobacter aerogenes ATCC 13048
Escherichia coli [7] = experiment: […] against Escherichia coli Juhl (100 X LD50) (s.c. administration); Range is between(0.2-0.5); conditions: sc
Pseudomonas aeruginosa [8] = experiment: In vitro antibacterial activity against Pseudomonas aeruginosa K799/WT
Escherichia coli [9] = experiment: […] against Escherichia coli Juhl (100 X LD50) (s.c. administration); Range is between(1.0-1.8)
Pseudomonas aeruginosa [10] = experiment: Compound was evaluated in vivo for antibacterial activity against Pseudomonas aeruginosa 5007 (100 X LD50);
Staphylococcus aureus [11] = experiment: Compound was evaluated in vivo for antibacterial activity against Staphylococcus aureus NCTC 10649 (100 X LD50) (s.c. administration); Range is between (1.0-2.5); conditions: sc
Escherichia coli [12] = experiment: Compound was evaluated in vivo for antibacterial activity against Escherichia coli Juhl (100 X LD50) (p.o. administration); Range is between (2.8-6.5); conditions: po
Escherichia coli [13] = experiment: Compound was evaluated in vivo for antibacterial activity against Escherichia coli Juhl (100 X LD50) (s.c. administration); Range is between (0.3-1.3); conditions: sc
Pseudomonas aeruginosa [14] = experiment: Compound was evaluated in vivo for antibacterial activity against Pseudomonas aeruginosa 5007 (100 X LD50) (p.o. administration); Range is between (13.4-34.4); conditions: po
Escherichia coli [15] = experiment: Compound was evaluated in vivo for antibacterial activity against Escherichia coli Juhl (100 X LD50) (p.o. administration); Range is between (3.8-11.2)
Pseudomonas aeruginosa [16] = experiment: Compound was evaluated in vivo for antibacterial activity against Pseudomonas aeruginosa 5007 (100 X LD50) (s.c. administration); Range is between (1.0-2.5); conditions: sc

Structure (SMILES): O=C(O)c1cn(-c2ccc(F)cc2F)c2c(F)c(N3CCNCC3)c(F)cc2c1=O
- MIC (Acinetobacter): 0.39 µg/mL (≈ 0.926 µM)
- MIC (Staphylococcus aureus [1]): 0.39 µg/mL (≈ 0.926 µM)
- MIC [2]: 0.78 µg/mL (≈ 1.85 µM)
- MIC (Klebsiella pneumoniae): 0.05 µg/mL (≈ 0.119 µM)
- MIC (Pseudomonas aeruginosa [3]): 0.78 µg/mL (≈ 1.85 µM)
- MIC (Pseudomonas aeruginosa [4]): 0.78 µg/mL (≈ 1.85 µM)
- MIC (Streptococcus pyogenes): 1.56 µg/mL (≈ 3.7 µM)
- MIC (Enterococcus faecium): 1.56 µg/mL (≈ 3.7 µM)
- MIC (Escherichia coli [5]): 0.05 µg/mL (≈ 0.119 µM)
- MIC (Staphylococcus aureus [6]): 0.39 µg/mL (≈ 0.926 µM)
- MIC (Klebsiella aerogenes): 0.2 µg/mL (≈ 0.475 µM)
- ED50 (Escherichia coli [7]): 0.3 mg/kg

Structure (SMILES): CN1CCN(c2cc3c(cc2F)c(=O)c(C(=O)O)cn3-c2ccc(F)cc2)CC1 [DIFLOXACIN]
- MIC (Acinetobacter): 0.78 µg/mL (≈ 1.95 µM)
- MIC (Staphylococcus aureus [1]): 0.2 µg/mL (≈ 0.501 µM)
- MIC [2]: 0.39 µg/mL (≈ 0.976 µM)
- MIC (Klebsiella pneumoniae): 0.1 µg/mL (≈ 0.25 µM)
- MIC (Pseudomonas aeruginosa [3]): 0.78 µg/mL (≈ 1.95 µM)
- MIC (Streptococcus pyogenes): 1.56 µg/mL (≈ 3.91 µM)
- MIC (Enterococcus faecium): 1.56 µg/mL (≈ 3.91 µM)
- MIC (Escherichia coli [5]): 0.2 µg/mL (≈ 0.501 µM)
- MIC (Pseudomonas aeruginosa [8]): 1.56 µg/mL (≈ 3.91 µM)
- MIC (Staphylococcus aureus [6]): 0.2 µg/mL (≈ 0.501 µM)
- MIC (Klebsiella aerogenes): 0.78 µg/mL (≈ 1.95 µM)

Structure (SMILES): CN1CCN(c2c(F)cc3c(=O)c(C(=O)O)cn(-c4ccc(F)cc4)c3c2F)CC1
- MIC (Acinetobacter): 0.39 µg/mL (≈ 0.934 µM)
- MIC (Staphylococcus aureus [1]): 0.39 µg/mL (≈ 0.934 µM)
- MIC [2]: 0.78 µg/mL (≈ 1.87 µM)
- MIC (Klebsiella pneumoniae): 0.39 µg/mL (≈ 0.934 µM)
- MIC (Pseudomonas aeruginosa [3]): 3.1 µg/mL (≈ 7.43 µM)
- MIC (Streptococcus pyogenes): 3.1 µg/mL (≈ 7.43 µM)
- MIC (Enterococcus faecium): 3.1 µg/mL (≈ 7.43 µM)
- MIC (Escherichia coli [5]): 0.39 µg/mL (≈ 0.934 µM)
- MIC (Pseudomonas aeruginosa [8]): 3.1 µg/mL (≈ 7.43 µM)
- MIC (Staphylococcus aureus [6]): 0.39 µg/mL (≈ 0.934 µM)
- MIC (Klebsiella aerogenes): 0.78 µg/mL (≈ 1.87 µM)
- ED50 mg/kg (Escherichia coli [9]): 1.3

Structure (SMILES): Cl.O=C(O)c1cn(-c2ccc(F)cc2)c2cc(N3CCNCC3)c(F)cc2c1=O [SARAFLOXACIN HYDROCHLORIDE]
- MIC (Pseudomonas aeruginosa [10]): 0.39 µg/mL
- MIC (Acinetobacter): 0.2 µg/mL
- MIC (Staphylococcus aureus [1]): 0.2 µg/mL
- MIC [2]: 0.39 µg/mL
- MIC (Klebsiella pneumoniae): 0.02 µg/mL
- MIC (Pseudomonas aeruginosa [3]): 0.39 µg/mL
- ED50 (Staphylococcus aureus [11]): 1.6 mg/kg
- ED50 (Escherichia coli [12]): 4.3 mg/kg
- MIC (Streptococcus pyogenes): 0.78 µg/mL
- MIC (Enterococcus faecium): 1.56 µg/mL
- ED50 (Escherichia coli [13]): 0.6 mg/kg
- MIC (Escherichia coli [5]): 0.05 µg/mL
- ED50 (Pseudomonas aeruginosa [14]): 21.4 mg/kg
- MIC (Pseudomonas aeruginosa [8]): 0.39 µg/mL
- ED50 mg/kg (Escherichia coli [15]): 6.5
- MIC (Staphylococcus aureus [6]): 0.2 µg/mL
- MIC (Klebsiella aerogenes): 0.2 µg/mL
- ED50 (Pseudomonas aeruginosa [16]): 1.6 mg/kg

Structure (SMILES): NC1CCN(c2c(F)cc3c(=O)c(C(=O)O)cn(-c4ccc(F)cc4)c3c2F)C1 (centres undefined)
- MIC (Acinetobacter): 0.78 µg/mL (≈ 1.93 µM)
- MIC (Staphylococcus aureus [1]): 0.2 µg/mL (≈ 0.496 µM)
- MIC [2]: 0.39 µg/mL (≈ 0.967 µM)
- MIC (Klebsiella pneumoniae): 0.05 µg/mL (≈ 0.124 µM)
- MIC (Pseudomonas aeruginosa [3]): 3.1 µg/mL (≈ 7.69 µM)
- MIC (Streptococcus pyogenes): 1.56 µg/mL (≈ 3.87 µM)
- MIC (Enterococcus faecium): 3.1 µg/mL (≈ 7.69 µM)
- MIC (Escherichia coli [5]): 0.2 µg/mL (≈ 0.496 µM)
- MIC (Pseudomonas aeruginosa [8]): 1.56 µg/mL (≈ 3.87 µM)
- MIC (Staphylococcus aureus [6]): 0.2 µg/mL (≈ 0.496 µM)
- MIC (Klebsiella aerogenes): 0.2 µg/mL (≈ 0.496 µM)

From ChEMBL document CHEMBL1123847, “Synthesis and structure-activity relationship of 1-aryl-6,8-difluoroquinolone antibacterial agents” (1987)
